pEC50, pIC50: −log10 of the molar value.
Experiments:
[1] = system: LPS triggered IL-10 secretion in monocyte-derived macrophages (MdM); experiment: MdM assay: LPS-triggered IL-10 (ELISA); format: cell-based, human; conditions: maximal fold change vs LPS only, median across assays
Description: This assay evaluates illustrative compounds of the invention for their inhibition of LPS-induced TNFα and LPS triggered IL-10 secretion in monocyte-derived macrophages.
PBMCs are isolated from human blood samples (buffycoats). The buffy coat is aseptically transferred into a 50 mL Falcon tube, and diluted 1/2 in PBS. Falcon tubes are filled with 20 mL Lymphoprep™, on top of which 25 mL of the buffy coat is carefully added, tubes are centrifuged for 35 min at 400 g in temperature controlled centrifuge, without brake, at 25° C. PBMCs are aspirated from the white interface layer between sample and Lymphoprep™. PBMCs are washed five times in PBS.
PBMCs are centrifuged at 300×g for 10 min and resuspended at a density of 1.0E07 cells/80 μL Miltenyi buffer (PBS, pH 7.4, 1% FBS, 2 mM EDTA).
Starting from this point of the protocol all steps are performed on ice. 20 μL of CD14+ micro-beads are added per 1.0E07 cells, the tube is mixed and incubated for 15 min in the fridge at 4° C. Cell suspension volume is adjusted to total volume of 100 mL using Miltenyi buffer, mixed gently and subsequently centrifuged for 10 min at 300× g. Supernantant is discarded and cell pellet is resuspended in 12 mL of Miltenyi buffer.
Four LS columns are placed in the MACS Separator (magnet) from Miltenyi Biotec, and are prewet by rinsing with 3 mL of MACS buffer per column. Three mL of cell suspension is added onto the column (max 1*10^8 of labelled cells/column), and columns are subsequently washed 3 times with 3 mL of Miltenyi buffer.
The columns are removed from the magnets, and 5 mL of Miltenyi buffer are added to the column to flush out the CD14+ fraction by pushing the plunger into the column. The flushed fractions are collected in a fresh 50 mL Falcon and volume is adjusted to 30 mL using Miltenyi buffer, cells are centrifuged for 10 min at 300× g. The obtained cell pellet is resuspended in 10 mL RPMI w/o FBS, and cell density is determined using a hematologic analyser (Sysmex XS-500i).
On day 10, MdMs are triggered and compound is added.
A compound dilution plate is made in 100% DMSO by 3-fold dilution of 10 mM stock solution. An intermediate dilution plate (10× final concentration) is made by diluting the compound dilution plate 50-fold in RPMI medium.
Medium is carefully removed from cell plates using multichannel pipette, and replaced by 80 μL fresh medium. 10 μL of the 10× final concentration compound is added to the cells and incubated for 1 hour at 37° C. before addition of trigger. No trigger conditions/trigger conditions are spiked with equal final DMSO concentrations of 0.2% DMSO. 10 μL of 10×LPS (final conc. 200 ng/mL) solution are added to all wells except for the ‘no trigger wells’ where 10 μL medium is added. Supernatant is collected after 2 h (IL-10 determination) and after 20 h (TNFα determination) of LPS triggering.
Plates are washed three times with PBST, where after 100 μL of Strep-HRP conjugate (0.5 μg/mL final concentration diluted in dilution buffer) is added. Plates are incubated in the dark, at 37° C. for 30 min. Plates are washed three times with PBST. […] 100 μL of substrate solution is added to each well and incubated until brilliant blue color develops. The reaction is stopped by adding 50 μL of 1 M H2SO4, after which absorbance is measured at 450 nm on the SpectraMax i3, Molecular Devices.
To quantify these inductions fold changes (FC) compared to ‘LPS only’ are calculated for each concentration tested and the maximal FC is calculated (IL-10 FCmax):
[formula] wherein ABS=Absorbance measured at 450 nm.
The median maximal FC for test compounds across two or more assays is reported (IL-10FCmax median).

[2] = target: T1, SIK1 (Homo sapiens, UniProt P57059); experiment: biochemical; conditions: 33P radioactive SIK kinase assay, AMARA peptide, 10 μM ATP; read-out: SIK1 IC50
T1 construct: purchased Carna Biosciences 02-131
Procedure, shortened: (§1)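 Radiometric assay: SIK1, SIK2 or SIK3 phosphorylates AMARA peptide using unlabelled plus [^33P]-γ-ATP, reaction started by ATP addition. Stopped with 150 mM phosphoric acid, filter-harvested and washed; incorporated ^33P counted by scintillation. Controls: 1% DMSO and 10 μM staurosporine final.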

[3] = target: T2, SIK2 (Homo sapiens, UniProt Q9H0K1); experiment: biochemical; conditions: 33P radioactive SIK kinase assay, AMARA peptide, 10 μM ATP
T2 construct: purchased ThermoFisher Scientific PV4792
Procedure, shortened: as §1

[4] = target: T3, SIK3 (Homo sapiens, UniProt Q9Y2K2); experiment: biochemical
T3 construct: purchased SignalChem S12-11G-100
Procedure, shortened: as §1

[5] = system: LPS-induced TNFα secretion in monocyte-derived macrophages (MdM); experiment: MdM assay: LPS-triggered TNFα (ELISA); format: cell-based, human; conditions: Homo sapiens, Macrophage, LPS-triggered TNFα inhibition
Procedure, shortened: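 TNFα ELISA read on supernatants harvested 20 h after LPS (final 200 ng/mL) stimulation. Cells were day-10 macrophages derived from human blood CD14+ monocytes, exposed to 3-fold compound dilutions for 1 h at 37 °C beforehand, with DMSO held at 0.2%.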

T1 sequence (P57059 whole entry): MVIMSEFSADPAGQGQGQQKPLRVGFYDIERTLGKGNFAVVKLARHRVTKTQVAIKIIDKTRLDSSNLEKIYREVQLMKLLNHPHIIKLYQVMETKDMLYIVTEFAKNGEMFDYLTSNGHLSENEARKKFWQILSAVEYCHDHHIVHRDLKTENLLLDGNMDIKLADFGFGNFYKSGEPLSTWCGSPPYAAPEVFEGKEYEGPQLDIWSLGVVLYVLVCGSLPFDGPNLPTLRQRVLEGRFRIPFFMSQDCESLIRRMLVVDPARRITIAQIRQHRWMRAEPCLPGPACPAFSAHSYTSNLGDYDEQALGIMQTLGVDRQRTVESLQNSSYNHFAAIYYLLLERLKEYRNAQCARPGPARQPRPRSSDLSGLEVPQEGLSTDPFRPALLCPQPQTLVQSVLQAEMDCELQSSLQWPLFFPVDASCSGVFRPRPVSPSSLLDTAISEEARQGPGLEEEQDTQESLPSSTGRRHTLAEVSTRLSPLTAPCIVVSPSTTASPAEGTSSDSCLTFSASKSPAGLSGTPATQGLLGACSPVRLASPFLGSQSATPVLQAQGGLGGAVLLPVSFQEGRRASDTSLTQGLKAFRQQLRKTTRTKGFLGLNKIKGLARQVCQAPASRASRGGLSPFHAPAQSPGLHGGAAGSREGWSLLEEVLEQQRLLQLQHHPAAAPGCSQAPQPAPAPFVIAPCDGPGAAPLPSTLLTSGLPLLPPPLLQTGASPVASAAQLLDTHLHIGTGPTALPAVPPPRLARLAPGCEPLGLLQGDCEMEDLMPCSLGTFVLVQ
T3 sequence (Q9Y2K2 whole entry): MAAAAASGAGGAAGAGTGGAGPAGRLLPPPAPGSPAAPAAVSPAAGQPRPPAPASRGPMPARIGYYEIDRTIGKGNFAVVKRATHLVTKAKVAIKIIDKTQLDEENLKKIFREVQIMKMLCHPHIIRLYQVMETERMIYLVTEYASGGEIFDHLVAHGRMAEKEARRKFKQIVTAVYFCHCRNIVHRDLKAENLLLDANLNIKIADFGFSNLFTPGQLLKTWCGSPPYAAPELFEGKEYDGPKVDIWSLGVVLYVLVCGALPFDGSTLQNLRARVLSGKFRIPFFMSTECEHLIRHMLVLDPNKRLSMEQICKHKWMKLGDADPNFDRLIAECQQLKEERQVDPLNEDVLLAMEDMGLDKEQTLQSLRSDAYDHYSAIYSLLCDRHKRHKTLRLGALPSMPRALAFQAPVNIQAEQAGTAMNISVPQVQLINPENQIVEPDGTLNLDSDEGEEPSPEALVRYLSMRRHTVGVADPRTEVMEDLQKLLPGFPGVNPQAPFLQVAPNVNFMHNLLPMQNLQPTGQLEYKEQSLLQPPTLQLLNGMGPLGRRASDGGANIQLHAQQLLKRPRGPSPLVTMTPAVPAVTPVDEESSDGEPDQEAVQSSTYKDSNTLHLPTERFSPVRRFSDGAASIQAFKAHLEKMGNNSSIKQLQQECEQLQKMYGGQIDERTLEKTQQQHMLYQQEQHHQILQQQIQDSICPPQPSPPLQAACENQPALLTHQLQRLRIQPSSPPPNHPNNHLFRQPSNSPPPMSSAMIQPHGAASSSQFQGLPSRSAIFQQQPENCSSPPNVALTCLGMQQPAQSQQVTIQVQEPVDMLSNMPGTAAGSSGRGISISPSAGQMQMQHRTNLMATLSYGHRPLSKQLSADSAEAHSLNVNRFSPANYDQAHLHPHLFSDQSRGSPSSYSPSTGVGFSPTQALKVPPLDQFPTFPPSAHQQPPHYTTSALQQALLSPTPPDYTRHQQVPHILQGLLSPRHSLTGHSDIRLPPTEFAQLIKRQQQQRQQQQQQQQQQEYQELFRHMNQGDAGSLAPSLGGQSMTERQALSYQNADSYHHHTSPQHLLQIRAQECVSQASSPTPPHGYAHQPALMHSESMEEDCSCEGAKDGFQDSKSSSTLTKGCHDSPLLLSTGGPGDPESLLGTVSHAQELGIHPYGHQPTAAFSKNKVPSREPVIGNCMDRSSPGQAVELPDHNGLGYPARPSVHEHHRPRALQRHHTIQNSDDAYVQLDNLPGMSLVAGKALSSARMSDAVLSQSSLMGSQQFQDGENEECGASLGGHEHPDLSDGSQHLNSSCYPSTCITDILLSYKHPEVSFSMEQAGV
T2 sequence (Q9H0K1 whole entry): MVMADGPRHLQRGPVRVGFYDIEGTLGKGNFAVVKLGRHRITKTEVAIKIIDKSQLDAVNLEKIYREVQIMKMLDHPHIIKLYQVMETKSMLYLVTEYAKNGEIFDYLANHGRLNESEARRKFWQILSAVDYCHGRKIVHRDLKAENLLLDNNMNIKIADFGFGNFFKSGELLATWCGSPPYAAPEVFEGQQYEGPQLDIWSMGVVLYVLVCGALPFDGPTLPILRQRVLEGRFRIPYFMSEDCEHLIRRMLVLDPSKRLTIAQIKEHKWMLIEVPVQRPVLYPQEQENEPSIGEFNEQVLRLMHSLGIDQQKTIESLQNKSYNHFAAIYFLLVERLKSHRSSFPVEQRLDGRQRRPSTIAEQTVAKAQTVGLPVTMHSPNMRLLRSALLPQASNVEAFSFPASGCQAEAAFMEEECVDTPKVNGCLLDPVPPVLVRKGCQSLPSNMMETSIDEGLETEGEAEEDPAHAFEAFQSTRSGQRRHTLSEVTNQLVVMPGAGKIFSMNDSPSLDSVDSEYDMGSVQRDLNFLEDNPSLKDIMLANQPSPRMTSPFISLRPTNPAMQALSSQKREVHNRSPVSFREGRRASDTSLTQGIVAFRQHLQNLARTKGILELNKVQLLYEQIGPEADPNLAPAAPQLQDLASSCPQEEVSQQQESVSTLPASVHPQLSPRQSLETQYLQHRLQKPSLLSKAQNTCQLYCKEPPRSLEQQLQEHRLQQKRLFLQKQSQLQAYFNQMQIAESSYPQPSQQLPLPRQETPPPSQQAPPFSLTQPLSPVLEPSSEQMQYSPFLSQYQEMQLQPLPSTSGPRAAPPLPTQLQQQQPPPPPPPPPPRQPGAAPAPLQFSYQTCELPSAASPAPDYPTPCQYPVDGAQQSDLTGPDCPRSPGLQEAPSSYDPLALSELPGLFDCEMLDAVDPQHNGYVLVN

Row | Structure (SMILES) | IL-10 FCmax median [1] | pIC50 [2] | pIC50 [3] | pIC50 [4] | pEC50 [5]
1 | CCn1cc(-c2cnc3c(-c4cc(OC)c(C(=O)NCC(F)(F)F)c(OC)c4)cnn3c2)cn1 [compound 20, 4-[6-(1-ethylpyrazol-4-yl)pyrazolo[1,5-a]pyrimidin-3-yl]-2,6-dimethoxy-N-(2,2,2-trifluoroethyl)benzamide] | ++ (>1.5-4.5) | 7.00 to 8.00 | 8.00 to 11.00 | 7.00 to 8.00 | 6.00 to 7.00
2 | COc1cc(-n2cnc3cc(-c4cnn(C)c4)ccc32)cc(OC)c1C(=O)N[C@@H](C)C(F)(F)F [compound 80, 2,6-dimethoxy-4-[5-(1-methylpyrazol-4-yl)benzimidazol-1-yl]-N-[(1S)-2,2,2-trifluoro-1-methyl-ethyl]benzamide] | ++ (>1.5-4.5) | 7.00 to 8.00 | 8.00 to 11.00 | 7.00 to 8.00 | 7.00 to 10.00
3 | COc1ccc(-c2ccn3c(-c4cc(OC)c(C(=O)NCC(F)(F)F)c(OC)c4)cnc3c2)cn1 [compound 239, 2,6-dimethoxy-4-[7-(6-mcthoxy-3-pyridyl)imidazo[1,2--a]pyridin-3-yl]-N-(2,2,2-trifluoroethyl)benzamide] | ++ (>1.5-4.5) | 7.00 to 8.00 | 8.00 to 11.00 | 8.00 to 11.00 | 6.00 to 7.00
4 | CCn1cc(-c2ccc3c(c2)ncn3-c2cc(OC)c(C(=O)NCC(F)F)c(OC)c2)cn1 [compound 11, N-(2,2-difluoroethyl)-4-[5-(1-ethylpyrazol-4-yl)benzimidazol-1-yl]-2,6-dimethoxy-benzamide] | ++ (>1.5-4.5) | 7.00 to 8.00 | 8.00 to 11.00 | 8.00 to 11.00 | 6.00 to 7.00
5 | COc1cc(-n2cnc3cc(-c4cnoc4)ccc32)cc(OC)c1C(=O)NCC(F)(F)F [Cpd 51, 4-(5-isoxazol-4-ylbenzimidazol-1-yl)-2,6-dimethoxy-N-(2,2,2-trifluoroethyl)benzamide] | ++ (>1.5-4.5) | 7.00 to 8.00 | 7.00 to 8.00 | 7.00 to 8.00 | 6.00 to 7.00
6 | COc1cc(-n2cnc3cc(-c4cnn(CC#N)c4)ccc32)cc(OC)c1C(=O)NCC(F)(F)F [compound 40, 4-[5-[1-(cyanomethyl)pyrazol-4-yl]benzimidazol-1-yl]-2,6-dimethoxy-N-(2,2,2-trifIuoroethyl)benzamide] | ++ (>1.5-4.5) | 7.00 to 8.00 | 8.00 to 11.00 | 8.00 to 11.00 | 7.00 to 10.00
7 | CCOC(=O)CCCn1cc(-c2ccn3c(-c4cc(OC)c(C(=O)NCC(F)(F)F)c(OC)c4)cnc3c2)cn1 [compound 257, ethyl 4-[4-[3-[3,5-dimethoxy-4-(2,2,2-trifluoroethyl-carbamoyl)phenyl]imidazo[1,2-a]pyridin-7-yl]pyrazol-1-yl]butanoate] | + (≤1.5) | 8.00 to 11.00 | 8.00 to 11.00 | 8.00 to 11.00 | 7.00 to 10.00
8 | COc1cc(-n2cnc3cc(-c4cnn(C)c4)ccc32)cc(OC)c1C(=O)NC1CC1 [Cpd 86, N-cyclopropyl-2,6-dimethoxy-4-[5-(1-methylpyrazol-4-yl)benzimidazol-1-yl]benzamide] | ++ (>1.5-4.5) | 7.00 to 8.00 | 8.00 to 11.00 | 8.00 to 11.00 | 7.00 to 10.00
9 | COc1cc(-c2cnn3cc(-c4cnn(C)c4)cnc23)cc(OC)c1C(=O)NCC(F)F [compound 24, N-(2,2-difluoroethyl)-2,6-dimethoxy-4-[6-(1-methylpyrazol-4-yl)pyrazolo[1,5-a]pyrimidin-3-yl]benzamide] | ++ (>1.5-4.5) | 7.00 to 8.00 | 8.00 to 11.00 | 7.00 to 8.00 | 6.00 to 7.00
10 | COc1cc(-n2cnc3cc(-c4cnn(C5CCN(C)CC5)c4)ccc32)cc(OC)c1C(=O)NCC(F)(F)F [Cpd 46, 2,6-dimethoxy-4-[5-[1-(1-methyl-4-piperidyl)pyrazol-4-yl]benzimidazol-1-yl]-N-(2,2,2-trifluoroethyl)benzamide] | ++ (>1.5-4.5) | 8.00 to 11.00 | 8.00 to 11.00 | 8.00 to 11.00 | 7.00 to 10.00
11 | COc1cc(-c2cnc3cc(-c4ccc(C#N)nc4)ccn23)cc(OC)c1C(=O)NCC(F)(F)F [compound 240, 4-[7-(6-cyano-3-pyridyl)imidazo[1,2-a]pyridin-3-yl]-2,6-dimethoxy-N-(2,2,2-trifluoroethyl)benzamide] | + (≤1.5) | 6.30 to 7.00 | 7.00 to 8.00 | 8.00 to 11.00 | 6.00 to 7.00
12 | COc1cc(-c2cnc3cc(-c4cn[nH]c4)ccn23)cc(OC)c1C(=O)N[C@H](C)C(F)(F)F [compound 222, 2,6-dimethoxy-4-[7-(1H-pyrazol-4-yl)imidazo[1,2-a]pyridin-3-yl]-N-[(1R)-2,2,2-trifluoro-1-methyl-ethyl]benzamide] | +++ (>4.5) | 8.00 to 11.00 | 8.00 to 11.00 | 8.00 to 11.00 | 6.00 to 7.00
13 | COc1cc(-c2cnc3cc(-c4cc(C)no4)ccn23)cc(OC)c1C(=O)N[C@H](C)C(F)(F)F [compound 223, 2,6-dimethoxy-4-[7-(3-methylisoxazol-5-yl)imidazo[1,2-a]pyridin-3-yl]-N-[(1R)-2,2,2-trifluoro-1-methyl-ethyl]benzamide] | +++ (>4.5) | 7.00 to 8.00 | 7.00 to 8.00 | 7.00 to 8.00 | 6.00 to 7.00
14 | COC(=O)CCCn1cc(-c2ccn3c(-c4cc(OC)c(C(=O)NCC(F)(F)F)c(OC)c4)cnc3c2)cn1 [compound 256, methyl 4-[4-[3-[3,5-dimethoxy-4-(2,2,2-trifluoroethyl-carbamoyl)phenyl]imidazo[1,2-a]pyridin-7-yl]pyrazol-1-yl]butanoate] | ++ (>1.5-4.5) | 8.00 to 11.00 | 8.00 to 11.00 | 8.00 to 11.00 | 7.00 to 10.00
15 | CCn1cc(-c2ccc3c(c2)ncn3-c2cc(OC)c(C(=O)NCCF)c(OC)c2)cn1 [compound 10, 4-[5-(1-ethylpyrazol-4-yl)benzimidazol-1-yl]-N-(2-fluoroethyl)-2,6-dimethoxy-benzamide] | ++ (>1.5-4.5) | 7.00 to 8.00 | 8.00 to 11.00 | 8.00 to 11.00 | 6.00 to 7.00
16 | COc1cc(-n2cnc3cc(-c4cnn(CCO)c4)ccc32)cc(OC)c1C(=O)NCC(F)(F)F [compound 33, 4-[5-[1-(2-hydroxyethyl)pyrazol-4-yl]benzimidazol-1-yl]-2,6-dimethoxy-N-(2,2,2-trifluoroethyl)benzamide] | ++ (>1.5-4.5) | 8.00 to 11.00 | 8.00 to 11.00 | 8.00 to 11.00 | < 5.30
